Structures can show the parent of a compound that is named as a salt.

The target of data set [1] is T1, Aβ 1-42 (Homo sapiens, UniProt P05067).
T1 construct: The reaction solutions contained Aβ 1-42 at concentrations
The experiment in a line: Assay 1 Fluorometric H2O2 assay (peroxide). The format is biochemical. As to conditions: inhibition of H2O2 generation by Aβ with copper. Here is the method: Assay 1. Fluorometric H2O2 Assay
A fluorometric assay was used to test the ability of a test compound to inhibit hydrogen peroxide generation by Aβ in the presence of copper based on dichlorofluoroscein diacetate (DCF; Molecular Probes, Eugene Oreg.). The DCF solution (5 mM) in 100% dimethyl sulphoxide (previously purged with argon for 1 hr at 20° C.) was deacetylated in the presence of 0.025M NaOH for 30 min and neutralised at pH 7.4 to a final concentration of 1 mM. Horseradish peroxidase (HRP) stock solution was prepared to 1 μM at pH 7.4. The reactions were carried out in PBS, pH 7.4 in a 96 well plate (total volume=250 μl/well). The reaction solutions contained Aβ 1-42 at concentrations in the range of 50 nM to 1 μM, copper-glycine chelate (Cu-Gly), was prepared by adding CuCl2 to glycine in the ratio of 1:6 and added to the Aβ in the proportion 2Cu-Gly:1Aβ), reducing agents including dopamine (5 μM) or ascorbic acid, deacetylated DCF 100 μM, and HRP, 0.1 μM. 1-10 μM EDTA or another chelator may also be present as a control for free copper, but was not required for the assay to function. The reaction mixture was incubated at 37 C for 60 min. Catalase (4000 units/ml) and H2O2 (1-2.5 μM) standards in PBS pH 7.4 may be included as positive controls. Fluorescence was recorded using a plate reader with excitation and emission filters at […] respectively. H2O2 concentration may be established by comparing fluorescence with the H2O2 standards. Inhibition of Aβ H2O2 production was assayed by including a given concentration of test compound(s) in the test wells.

The nature of data set [2]: Assay 3(d) test compound cytotoxicity (MTS). Type of data set: cell-based. As to conditions: BL6Jx129sv, mouse, primary cortical neuronal cultures, cortical neurons; for viability at 4 days, 1 µM: read-out: Assay 3(d) Cytotoxicity (% viable at 1 uM); for viability at 4 days, 10 µM: read-out: Assay 3(d) Cytotoxicity (% viable at 10 uM). How it is done:
Primary Cortical Neuronal Cultures
Cortical cultures were prepared as previously described (White et al., 1998). Embryonic day 14 BL6Jx129sv mouse cortices were removed, dissected free of meninges and dissociated in 0.025% (wt/vol) trypsin. Dissociated cells were plated in 48 well culture plates at a density of 2×10^6 cells/mL in MEM with 25% (vol/vol) FCS and 5% (vol/vol) HS and incubated at 37° C., 2 hrs. Media was then replaced with Neurobasal media (Invitrogen Life Technologies) and B27 supplements (Invitrogen Life Technologies). Cultures were maintained at 37° C. in 5% CO2. Prior to experimentation, the culture medium was replaced with Neurobasal media and B27 minus antioxidants (Invitrogen Life Technologies).
(a) MTS Assay for Cell Viability
Cell viability is determined using the MTS assay. Culture medium is replaced with fresh neurobasal medium plus B27 supplements minus antioxidants. 1/10 volume MTS solution (Cell Titre 96 Aqueous One, Promega Corporation) and incubated at 37° C., 2 hrs. 200 microlitre aliquots are measured with a spectrophotometer at 560 nm.
(d) Assay for Test Compound Cytoxicity
Neuronal cortical cells were cultured for five days as per Assay 2 in NB media and B27 supplement.
On day six the test compounds were added to the neuronal cell cultures in NB media and B27 supplement minus antioxidants.
Test compounds were dissolved in 100% DMSO to a concentration of 2.5 mM (10 mM if excess compound was weighed out per vial—then diluted to 2.5 mM). 2.5 mM stock solution was serially diluted 1 in 10 to give working solutions of 250 uM, 25 uM, 2.5 uM. Test compounds were not added directly to cells, instead they were added to a 48 well ‘Drug Plate’ as comprised below:
Preparation of “Drug Plate”:
• Well 1: 576 ul NB+B27 (no antioxidant)*+24 ul 2.5 uM test compound • Well 2: 576 ul NB+B27 (no antioxidant)+24 ul 25 uM test compound • Well 3: 576 ul NB+B27 (no antioxidant)+24 ul 250 uM test compound • Well 4: 576 ul NB+B27 (no antioxidant)+24 ul 2.5 uM test compound • Well 5: 576 ul NB+B27 (no antioxidant)+24 ul 25 uM test compound • Well 6: 576 ul NB+B27 (no antioxidant)+24 ul 250 uM test compound • Well 7: 576 ul NB+B27 (no antioxidant)+24 ul test compound diluent** • Well 8: 600 ul NB+B27 (no antioxidant)
The Drug Plate was incubated at 37° C. for 15 mins. 200 ul of each well was added in triplicate to the corresponding cell plate. The cell plate was incubated at 37° C., for 4 days, (2 compounds are tested on each plate of cells).
* NB media and B27 (no antioxidants),
** PBT diluent 10% DMSO in NB+B27 (no antioxidants)
On completion of the assay, 1/10 volume MTS was added per well of plate (ie 25 ul/250 ul). The plates were incubated at 37° C. for 2 hrs, and then absorbance was read at 560 nm.

A short description of data set [3]: Assay 16 mouse plasma levels of test compounds. The format is in vivo. As to conditions: highest level found in mice (Up to); oral dosing 30 mg/kg described for PB 1075-1077. Here is the method:
Assay 16. Determination of Mouse Plasma Levels of Test Compounds PB 1075
Oral administration of PB 1075 at 30 mg/kg, as a suspension in Na-Carboxymethyl Cellulose (CMC) was administered by oral gavage to four mice. Two mice were sacrificed 30 minutes after administration and two mice were sacrificed 60 minutes after administration. Blood was obtained by cardiac puncture and plasma separated by centrifugation.
The concentration of PB 1075 was determined by LC/MS using the triple quadrupole instrument. The mobile phase consisted of an acetonitrile (ACN)/water gradient (containing 0.05% Formic acid) and the column was a Phenomenex Lunea 5 um C8 (50×2 mm) column.
The supplied acute toxicity mouse plasma samples were directly injected following a protein precipitation with ACN. The analytical method in plasma was linear in the range of 10 to 10,000 ng/ml (R^2=0.994). Recovery of PB 1075 from plasma was ˜100%.
Oral administration of PB 1076 at 30 mg/kg, as a suspension in Na-Carboxymethyl Cellulose (CMC) was administered by oral gavage to four mice. Two mice were sacrificed 30 minutes after administration and two mice were sacrificed 60 minutes after administration. Blood was obtained by cardiac puncture and plasma separated by centrifugation.
The concentration of PB 1076 was determined by LC/MS using the triple quadrupole instrument. The mobile phase consisted of an acetonitrile (ACN)/water gradient (containing 0.05% Formic acid) and the column was a Phenomenex Luna 5 μM C8 (50×2 mm) column.
The mouse plasma samples were directly injected following a protein precipitation with ACN. The analytical method in plasma was linear in the range of 500 to 10,000 ng/ml (R^2=0.999). Recovery of PB 1076 from plasma was ˜85%.
Oral administration of PB 1077 at 30 mg/kg, as a suspension in Na-Carboxymethyl Cellulose (CMC) was administered by oral gavage to four mice. Two mice were sacrificed 30 minutes after administration and two mice were sacrificed 60 minutes after administration. Blood was obtained by cardiac puncture and plasma separated by centrifugation.
The concentration of PB 1077 was determined by LC/MS using the triple quadrupole instrument. The mobile phase consisted of an acetonitrile (ACN)/water gradient (containing 0.05% Formic acid) and the column was a Phenomenex Luna 5 μM C8 (50×2 mm) column.
The mouse plasma samples were directly injected following a protein precipitation with ACN. The analytical method in plasma was linear in the range of 5 to 5,000 ng/ml (R^2=0.999). Recovery of PB 1077 from plasma was ˜92%.

T1 sequence (P05067 672-713 limits assumed): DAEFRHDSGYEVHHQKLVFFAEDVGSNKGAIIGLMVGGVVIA

As to `CN1CCCC1CCn1cnc2c(O)c(Cl)cc(Cl)c2c1=O` (centres unmarked) [Compound 1078], half-maximal inhibition in data set [1] (IC50) required 730 nM. Moreover, in data set [2], the viability at 4 days, 1 µM turned out to be 94% and the viability at 4 days, 10 µM worked out at 94%. In addition, the “Assay 16 Mice plasma concentration” value in data set [3] is recorded as “Up to 262 ng/mL in”.
`Cc1cnc(-n2cnc3c(O)c(Cl)cc(Cl)c3c2=O)s1` [Compound 1082]: in data set [1], half-maximal inhibition (IC50) required 4500 nM. Besides, in data set [2], the viability at 4 days, 1 µM came out at 94% and the viability at 4 days, 10 µM was found to be 70%.
For `Cn1c(-n2cnc3c(O)c(Cl)cc(Cl)c3c2=O)nc2ccccc21` [Compound 1083], inhibition in data set [1] was half-maximal at 2300 nM (IC50). Also, the viability at 4 days, 10 µM in data set [2] came to 97%.
In the case of `O=c1c2c(Cl)cc(Cl)c(O)c2ncn1N1CCCCC1` [Compound 1086], the IC50 – broadly, the point on the concentration scale where inhibition reaches its midpoint – in data set [1] was determined as 390 nM. For the same compound, in data set [2], the viability at 4 days, 1 µM worked out at 98% and the viability at 4 days, 10 µM was found to be 51%.
In the same order, the values of `O=c1c2c(Cl)cc(Cl)c(O)c2ncn1-c1cccnc1` [Compound 1092] are 860 nM, 95% and 81%.
Taken in the same sequence, the figures for `COc1ccc(-n2cnc3c(O)c(Cl)cc(Cl)c3c2=O)cn1` [Compound 1093] were 390 nM, 122% and 13%.
Compound `Br.Cc1cccnc1Cn1cnc2c(O)c(Cl)cc(Cl)c2c1=O` [Compound 1098] had an IC50 in data set [1] of 440 nM. For the same compound, in data set [2], the viability at 4 days, 1 µM was 99% and the viability at 4 days, 10 µM was 88%.
`Nn1cnc2c(O)c(Cl)cc(Cl)c2c1=O` [Compound 1099, 3-Amino-5,7-dichloro-8-hydroxy-3H-quinazolin-4-one hydrobromide] registered an IC50 in data set [1] of 690 nM. In other words, the sub-micromolar range.
On to `Br.CC(C)Cn1cnc2c(O)c(Cl)cc(Cl)c2c1=O` [Compound 1107], for which the IC50 in data set [1] turned out to be 400 nM. For the same compound, in data set [2], the viability at 4 days, 1 µM is 92% and the viability at 4 days, 10 µM is 59%.
The compound `Br.CC(C)n1cnc2c(O)c(Cl)cc(Cl)c2c1=O` [Compound 1108] showed an IC50 in data set [1] of 250 nM. Further, in data set [2], the viability at 4 days, 1 µM was 100% and the viability at 4 days, 10 µM came out at 53%.
`CCN(CC)CCn1cnc2c(O)c(Cl)cc(Cl)c2c1=O` [Compound 1110] came in with an IC50 in data set [1] of 460 nM. For the same compound, the viability at 4 days, 10 µM in data set [2] was 77%.
For the compound `CCCCn1cnc2c(O)c(Cl)cc(Cl)c2c1=O` [Compound 1111], the midpoint of inhibition in data set [1], the IC50, lay at 320 nM. Further, in data set [2], the viability at 4 days, 1 µM stood at 93% and the viability at 4 days, 10 µM was 67%.
`Br.CCC(C)n1cnc2c(O)c(Cl)cc(Cl)c2c1=O` (centres unmarked) [Compound 1112] showed an IC50 in data set [1] of 330 nM. Besides, in data set [2], the viability at 4 days, 1 µM is 89% and the viability at 4 days, 10 µM came out at 46%. For the same compound, the “Assay 16 Mice plasma concentration” value in data set [3] is reported as “Upto 2949 ng/mL in”.
As to `CC(Br)CCn1cnc2c(O)c(Cl)cc(Cl)c2c1=O` (centres unmarked) [Compound 1114], the concentration for half-maximal inhibition (IC50) in data set [1] was found to be 580 nM. Also, the viability at 4 days, 10 µM in data set [2] amounted to 73%.
Compound `CCn1cnc2c(O)c(Cl)cc(Cl)c2c1=O` [Compound 1115] had an IC50 in data set [1] of 730 nM. For the same compound, in data set [2], the viability at 4 days, 1 µM stood at 101% and the viability at 4 days, 10 µM is 73%.
In data set [1], `C/C=C/Cn1cnc2c(O)c(Cl)cc(Cl)c2c1=O` [Compound 1126] displayed an IC50 of 370 nM.
The compound `CCn1cnc2c(O)ccc(Cl)c2c1=O` [Compound 1130] had an IC50 in data set [1] of 880 nM.
Consider `CCCn1cnc2c(O)ccc(Cl)c2c1=O` [Compound 1131], for which the IC50 in data set [1] was found to be 500 nM.
Still for that read-out and setting: the result for `CN(C)Cc1nc2c(O)c(Cl)cc(Cl)c2c(=O)[nH]1` [Compound 1147] reads 260 nM; that for `CNCc1nc2c(O)c(Cl)cc(Cl)c2c(=O)n1C` [Compound 1161], 140 nM.

Values taken from patent publication US8084459B2, “Substituted quinazolinones for treating neurological conditions” (Prana Biotechnology Ltd, priority 2004, dated 2011).
